Measured values taken from patent publication US4652566A, “Benzofuran derivatives, processes for preparing the same and antihypertensive agents containing the same” (Kaken Pharmaceutical Co., Ltd., priority 1984, dated 1987).
Counter-ions that a name gives are not always drawn. Like-named read-outs stand apart in the source and are kept apart here.

What was measured:
[1] = Antihypertensive effect and effect on heart rate in spontaneously hypertensive rat (SHR); type: in vivo; conditions: po, single dose
Method: [Antihypertensive effect and effect on a heart rate on rat suffering from a spontaneously hypertensive rat (SHR)]
A blood pressure was measured under no anesthetic condition by means of an apparatus for recording a blood pressure of a tail artery and a heart rate (Riken Kaihatsu Co., Ltd.) (PS-802) and at the same time a heart rate was also measured.
Each of test compounds was dissolved or suspended in an aqueous solution containing 5% by weight of acasia and the obtained solution or suspension was administered once orally to SHR which had been kept under a fast condition for one night. A blood pressure and a heart rate were measured before administration and after one hour, three hours, five hours and seven hours of it and the maximum value of changes were calculated by comparing the value measured before administration with the value measured after administration.
For the purpose of a comparison, the same experiment as mentioned above was carried out on both Labetalol and Diltiazem as mentioned above.
With respect to a dosage, 100 mg/kg and 10 mg/kg as to compounds obtained by Examples 2, 5, 6, 9 and 18 to 23 were respectively administered, 100 mg/kg as to compounds obtained by Examples 1, 3, 4, 7 and 10 to 17 was respectively administered.

[2] = biological target: T1, α-adrenergic blockade (vas deferens specimen, contraction by noradrenalin) (Rattus norvegicus, UniProt P43140); assay: α-Adrenergic blockade effect (contraction response by noradrenalin of vas deferens specimen, Magnus method); design: species or system Wister male rat
T1 construct: from tissue; host or cells: vas deferens of six-week-old male Wistar rat
T1 sequence (P43140 1-466): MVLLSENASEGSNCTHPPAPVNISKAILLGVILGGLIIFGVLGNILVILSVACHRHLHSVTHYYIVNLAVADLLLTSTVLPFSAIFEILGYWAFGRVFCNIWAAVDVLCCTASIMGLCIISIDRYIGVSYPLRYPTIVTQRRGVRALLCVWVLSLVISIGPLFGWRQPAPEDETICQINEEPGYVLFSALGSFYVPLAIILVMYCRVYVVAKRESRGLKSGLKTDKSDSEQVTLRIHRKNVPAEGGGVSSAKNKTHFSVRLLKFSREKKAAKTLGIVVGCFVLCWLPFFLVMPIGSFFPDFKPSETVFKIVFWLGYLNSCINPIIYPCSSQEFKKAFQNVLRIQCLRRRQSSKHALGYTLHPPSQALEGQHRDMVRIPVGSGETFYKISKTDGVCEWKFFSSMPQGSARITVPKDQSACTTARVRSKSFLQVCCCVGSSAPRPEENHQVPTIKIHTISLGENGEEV

[3] = biological target: T2, calcium antagonism (thoracic aorta spiral specimen, contraction by calcium) (Cavia porcellus, UniProt O35505); assay: Calcium antagonistic effect (contraction response by calcium of spiral thoracic aorta specimen, Magnus method); design: species or system Hartly male giunea pig; conditions: guinea pig thoracic aorta, antagonism of calcium contraction; for Kb: read-out: Calcium antagonistic effect, pA2 value (converted)
T2 construct: from tissue; host or cells: thoracic aorta spiral strip of male Hartley guinea pig
T2 sequence (O35505 whole entry): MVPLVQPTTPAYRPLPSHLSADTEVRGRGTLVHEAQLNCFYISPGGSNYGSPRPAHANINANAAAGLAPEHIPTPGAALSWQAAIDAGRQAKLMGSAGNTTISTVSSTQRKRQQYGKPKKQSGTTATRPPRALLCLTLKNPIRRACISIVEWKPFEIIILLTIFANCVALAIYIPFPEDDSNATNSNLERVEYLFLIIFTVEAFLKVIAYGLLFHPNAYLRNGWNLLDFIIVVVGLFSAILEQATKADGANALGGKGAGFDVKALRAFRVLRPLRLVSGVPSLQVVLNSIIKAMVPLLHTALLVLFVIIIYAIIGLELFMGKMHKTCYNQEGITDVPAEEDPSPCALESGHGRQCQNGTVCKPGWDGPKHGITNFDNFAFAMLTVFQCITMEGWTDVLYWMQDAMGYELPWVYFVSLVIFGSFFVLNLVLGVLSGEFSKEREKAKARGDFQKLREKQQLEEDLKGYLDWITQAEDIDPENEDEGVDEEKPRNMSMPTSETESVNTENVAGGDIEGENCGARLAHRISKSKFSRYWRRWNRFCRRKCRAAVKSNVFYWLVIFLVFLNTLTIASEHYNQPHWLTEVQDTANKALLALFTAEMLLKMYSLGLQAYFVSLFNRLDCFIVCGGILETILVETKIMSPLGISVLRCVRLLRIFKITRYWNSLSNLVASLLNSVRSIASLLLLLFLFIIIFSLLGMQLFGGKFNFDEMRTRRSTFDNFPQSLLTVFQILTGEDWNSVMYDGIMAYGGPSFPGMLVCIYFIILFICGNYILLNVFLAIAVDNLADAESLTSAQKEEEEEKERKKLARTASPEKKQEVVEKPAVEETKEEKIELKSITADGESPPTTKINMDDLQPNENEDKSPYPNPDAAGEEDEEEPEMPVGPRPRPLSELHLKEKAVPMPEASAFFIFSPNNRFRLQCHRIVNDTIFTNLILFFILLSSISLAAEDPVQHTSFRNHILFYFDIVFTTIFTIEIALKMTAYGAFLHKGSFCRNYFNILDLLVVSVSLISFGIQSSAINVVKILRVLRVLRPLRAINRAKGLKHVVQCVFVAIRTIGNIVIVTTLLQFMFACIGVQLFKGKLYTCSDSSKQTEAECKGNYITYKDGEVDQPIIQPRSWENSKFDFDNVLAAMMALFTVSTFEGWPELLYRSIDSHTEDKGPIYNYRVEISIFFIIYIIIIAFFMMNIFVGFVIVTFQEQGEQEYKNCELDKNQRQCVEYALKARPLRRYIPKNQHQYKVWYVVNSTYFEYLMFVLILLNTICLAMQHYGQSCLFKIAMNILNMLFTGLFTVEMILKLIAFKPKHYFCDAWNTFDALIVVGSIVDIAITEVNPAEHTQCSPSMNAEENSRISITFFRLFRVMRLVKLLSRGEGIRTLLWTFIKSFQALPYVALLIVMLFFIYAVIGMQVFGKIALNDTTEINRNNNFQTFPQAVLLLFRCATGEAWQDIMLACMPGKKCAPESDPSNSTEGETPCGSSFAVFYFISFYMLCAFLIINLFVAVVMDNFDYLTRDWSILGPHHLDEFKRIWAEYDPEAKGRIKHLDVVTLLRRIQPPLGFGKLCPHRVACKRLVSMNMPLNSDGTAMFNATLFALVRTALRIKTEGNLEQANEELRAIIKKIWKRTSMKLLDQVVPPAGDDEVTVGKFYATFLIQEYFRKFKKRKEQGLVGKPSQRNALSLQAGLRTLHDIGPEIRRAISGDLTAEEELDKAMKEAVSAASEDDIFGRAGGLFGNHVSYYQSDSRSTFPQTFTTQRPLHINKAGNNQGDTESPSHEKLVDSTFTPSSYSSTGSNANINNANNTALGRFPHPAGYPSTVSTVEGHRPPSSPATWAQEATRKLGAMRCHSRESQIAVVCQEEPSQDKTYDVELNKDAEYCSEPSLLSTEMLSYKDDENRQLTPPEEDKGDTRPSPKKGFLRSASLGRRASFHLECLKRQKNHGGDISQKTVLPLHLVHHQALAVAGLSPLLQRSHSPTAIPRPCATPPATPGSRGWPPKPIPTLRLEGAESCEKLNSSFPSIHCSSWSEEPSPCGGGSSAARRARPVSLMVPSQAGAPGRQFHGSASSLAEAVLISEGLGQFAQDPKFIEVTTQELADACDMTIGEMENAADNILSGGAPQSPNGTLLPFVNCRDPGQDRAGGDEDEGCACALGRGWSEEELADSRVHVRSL
Method: [Calcium antagonistic effect]
Using a spiral blood vessel specimen taken from a thoracic aorta of Hartly male giunea pig weighed 400 to 600 g, a contraction response by calcium was measured as a dose-response curve according to Magnus method and the antagonistic activity for each test compound was indicated as above-mentioned pA2 value.

[4] = Accute toxicity test (LD50 value); conditions: mouse, in vivo; mice; single oral administration; deaths by seventh day; Litchfield-Wilcoxon
Method: [Accute toxicity test (LD50 value)]
The experiment was carried out using six weeks old ddy male mice.
Each of test compounds was suspended in an aqueous solution containing 5% by weight of acasia and the suspension was administered compulsorily once orally with a gastric probe. Within six hours after the start of the administration, the behavior of tested mice were observed consecutively. Thereafter, the observation was made at an interval of twenty four hours during 7 days and an accumulative number of deaths seventh day since the start of the administration was measured.
LD50 value was calculated according to the Litchfield-Wilcoxon method.

[5] = 10 mg/kg, maximum over 1, 3, 5, 7 hours (Table 2)
[6] = 100 mg/kg, maximum over 1, 3, 5, 7 hours (Table 2)
[7] = rat vas deferens, antagonism of noradrenalin contraction, pA2 = negative logarithm of antagonist dose shifting agonist curve two times, read-out: α-Adrenergic blockade effect, pA2 value (converted)
[8] = 100 mg/kg, maximum over 1, 3, 5, 7 hours (Table 3)
[9] = rat vas deferens, antagonism of noradrenalin contraction, pA2 = negative logarithm of antagonist dose shifting agonist curve two times

| SMILES | Maximum value of change, heart rate [1, 5] | Maximum value of change, systolic pressure [1, 5] | Maximum value of change, heart rate [1, 6] | Maximum value of change, systolic pressure [1, 6] | Kb [2, 7] | Kb [3] | LD50 at 168 h [4] | other results |
| --- | --- | --- | --- | --- | --- | --- | --- | --- |
| COc1ccccc1N1CCN(CC(O)COc2ccc3oc(C(C)=O)cc3c2)CC1 (stereo not drawn) [Ex. 5] | -49.2 ± 28.0 beats/min | -56.3 ± 6.0 mmHg | -143.4 ± 34.2 beats/min | -101.3 ± 5.2 mmHg |  |  |  |  |
| CCOC(=O)c1cc2cc(OCC(O)CN3CCN(c4ccccc4C)CC3)ccc2o1 (stereo not drawn) [Ex. 20, 2-ethoxycarbonyl-5-{2-hydroxy-3-[4-(2-methylphenyl)-piperazinyl]propoxy}benzofuran] | -81.1 ± 22.2 beats/min | -57.5 ± 12.5 mmHg | -87.5 ± 17.7 beats/min | -80.7 ± 13.6 mmHg |  |  |  |  |
| COc1ccccc1N1CCN(CC(O)COc2ccc3cc(C#N)oc3c2)CC1 (stereo not drawn) [Ex. 17 (HCl salt), 2-cyano-6-{2-hydroxy-3-[4-(2-methoxyphenyl)piperazinyl]propoxy}benzofuran] |  |  |  |  | 204 nM | 115 nM | 900 mg/kg | Maximum value of change, heart rate [1, 8]: -154.5 ± 21.1 beats/min; Maximum value of change, systolic pressure [1, 8]: -40.5 ± 6.6 mmHg |
| Cc1ccccc1N1CCN(CC(O)COc2cccc3cc(C(C)O)oc23)CC1 (stereo not drawn) [Ex. 23, 2-(1-hydroxyethyl)-7-{2-hydroxy-3-[4-(2-methylphenyl)piperazinyl]propoxy}benzofuran] | -93.4 ± 17.6 beats/min | -54.9 ± 9.4 mmHg | -131.4 ± 22.3 beats/min | -73.1 ± 9.2 mmHg | 77.6 nM | 589 nM | > 1000 mg/kg |  |
| COc1ccccc1N1CCN(CC(O)COc2ccc3oc(C(N)=O)cc3c2)CC1 (stereo not drawn) [Ex. 12] |  |  |  |  | 100 nM | 1170 nM | > 1500 mg/kg | α-Adrenergic blockade effect, relative ratio as compared with Phentolamine [2]: 1.6; Maximum value of change, heart rate [1, 8]: -110.0 ± 20.0 beats/min; Maximum value of change, systolic pressure [1, 8]: -100.2 ± 3.9 mmHg |
| CC(=O)c1cc2cccc(OCC(O)CN3CCN(c4ccccc4C)CC3)c2o1 (stereo not drawn) [Ex. 6 (HCl salt), 2-acetyl-7-{2-hydroxy-3-[4-(2-methylphenyl)-piperazinyl]propoxy}benzofuran] |  |  |  |  | 44.7 nM | 468 nM | > 1500 mg/kg |  |
| COc1ccccc1N1CCN(CC(O)COc2cccc3cc(C(=O)O)oc23)CC1 (stereo not drawn) [Ex. 21, 2-carboxy-7-{2-hydroxy-3-[4-(2-methoxyphenyl)piperazinyl]propoxy}benzofuran] | -5.8 ± 8.7 beats/min | -46.9 ± 6.3 mmHg | -25.7 ± 16.4 beats/min | -73.8 ± 9.9 mmHg |  |  |  |  |
| CCOC(=O)c1cc2cc(OCC(O)CN3CCN(c4ccccc4C)CC3)ccc2o1 (stereo not drawn) [Ex. 20 (HCl salt), 2-ethoxycarbonyl-5-{2-hydroxy-3-[4-(2-methylphenyl)-piperazinyl]propoxy}benzofuran] |  |  |  |  |  |  | > 1500 mg/kg | α-Adrenergic blockade effect, pA2 value [2, 9]: 6.46 ± 0.09; Calcium antagonistic effect, pA2 value [3]: 4.88 ± 0.70 |
| CC(=O)c1cc2cc(OCC(O)CN3CCN(c4ccccc4C)CC3)ccc2o1 (stereo not drawn) [Ex. 7] | -45.0 ± 17.2 beats/min | -86.4 ± 8.6 mmHg | -51.3 ± 20.2 beats/min | -117.5 ± 12.6 mmHg |  |  |  |  |
| NC(=O)c1cc2cccc(OCC(O)CN3CCN(c4cccc(Cl)c4)CC3)c2o1 (stereo not drawn) [Ex. 15] |  |  |  |  | 3020 nM | 398 nM | > 1000 mg/kg | Maximum value of change, heart rate [1, 8]: -100.0 ± 19.5 beats/min; Maximum value of change, systolic pressure [1, 8]: -79.9 ± 11.9 mmHg |
| COc1ccccc1N1CCN(CC(O)COc2cccc3cc(C(=O)O)oc23)CC1 (stereo not drawn) [Ex. 21 (HCl salt), 2-carboxy-7-{2-hydroxy-3-[4-(2-methoxyphenyl)piperazinyl]propoxy}benzofuran] |  |  |  |  | 355 nM | 3310 nM | > 1000 mg/kg |  |
| CC(CCc1ccccc1)NCC(O)c1ccc(O)c(C(N)=O)c1 (stereo not drawn) [Labetalol, reference compound] | -122.5 ± 37.5 beats/min | -32.9 ± 12.9 mmHg | -125.2 ± 25.6 beats/min | -55.0 ± 9.1 mmHg |  |  |  | Kb [2]: 1510 nM; Maximum value of change, heart rate [1, 8]: -125.2 ± 25.6 beats/min; Maximum value of change, systolic pressure [1, 8]: -55.0 ± 9.1 mmHg |
| CC(=O)c1cc2cc(OCC(O)CN3CCN(c4ccccc4C)CC3)ccc2o1 (stereo not drawn) [Ex. 7 (HCl salt)] |  |  |  |  | 219 nM | 631 nM | > 2000 mg/kg |  |
| COc1ccccc1N1CCN(CC(O)COc2cccc3cc(C(C)=O)oc23)CC1 (stereo not drawn) [Ex. 2, 2-acetyl-7-{2-hydroxy-3-[4-(2-methoxyphenyl)piperazinyl]-propoxy}benzofuran] | -121.7 ± 15 beats/min | -54.8 ± 11.2 mmHg | -155.6 ± 15.5 beats/min | -72.4 ± 8.9 mmHg |  |  | > 1500 mg/kg |  |
| CC(=O)c1cc2cccc(OCC(O)CN3CCN(c4ccccc4C)CC3)c2o1 (stereo not drawn) [Ex. 6, 2-acetyl-7-{2-hydroxy-3-[4-(2-methylphenyl)-piperazinyl]propoxy}benzofuran] | -70.0 ± 20.3 beats/min | -71.7 ± 4.9 mmHg | -135.8 ± 17.0 beats/min | -90.3 ± 9.2 mmHg |  |  |  |  |
| COc1ccc([C@@H]2Sc3ccccc3N(CCN(C)C)C(=O)[C@@H]2OC(C)=O)cc1 [Diltiazem, reference compound] | -140.0 ± 27.5 beats/min | -12.8 ± 5.7 mmHg | -136.7 ± 34.2 beats/min | -79.9 ± 11.6 mmHg |  |  |  | Maximum value of change, heart rate [1, 8]: -136.7 ± 34.2 beats/min; Maximum value of change, systolic pressure [1, 8]: -79.9 ± 11.6 mmHg |
| CCOC(=O)c1cc2cccc(OCC(O)CN3CCN(c4ccccc4OC)CC3)c2o1 (stereo not drawn) [Ex. 18, 2-ethoxycarbonyl-7-{2-hydroxy-3-[4-(2-methoxyphenyl)-piperazinyl]propoxy}benzofuran] | -96.7 ± 35.1 beats/min | -35.8 ± 4.6 mmHg | -138.3 ± 25.4 beats/min | -65.1 ± 5.5 mmHg |  |  |  |  |
| CCOC(=O)c1cc2cccc(OCC(O)CN3CCN(c4ccccc4OC)CC3)c2o1 (stereo not drawn) [Ex. 18 (HCl salt), 2-ethoxycarbonyl-7-{2-hydroxy-3-[4-(2-methoxyphenyl)-piperazinyl]propoxy}benzofuran] |  |  |  |  | 74.1 nM | 209 nM | > 1000 mg/kg |  |
| CCOC(=O)c1cc2cc(OCC(O)CN3CCN(c4ccccc4OC)CC3)ccc2o1 (stereo not drawn) [Ex. 19 (HCl salt), 2-ethoxycarbonyl-5-{2-hydroxy-3-[4-(2-methoxyphenyl)piperrazinyl]propoxy}benzofuran] |  |  |  |  |  |  | > 1500 mg/kg | α-Adrenergic blockade effect, pA2 value [2, 9]: 6.72 ± 0.03; Calcium antagonistic effect, pA2 value [3]: 5.28 ± 0.14 |
| CCOC(=O)c1cc2cc(OCC(O)CN3CCN(c4ccccc4OC)CC3)ccc2o1 (stereo not drawn) [Ex. 19, 2-ethoxycarbonyl-5-{2-hydroxy-3-[4-(2-methoxyphenyl)piperrazinyl]propoxy}benzofuran] | -68.4 ± 45.1 beats/min | -37.6 ± 9.0 mmHg | -73.4 ± 19.6 beats/min | -60.1 ± 10.8 mmHg |  |  |  |  |
